What was measured:
Assay type in all cases: functional
HL-60(TB) = assay: Growth inhibition of human HL-60(TB) cells at 10^-5 M incubated for 48 hrs by sulforhodamine B assay; conditions: HL-60, 48 h, read-out: GI
MOLT-4 = assay: Growth inhibition of human MOLT4 cells at 10^-5 M incubated for 48 hrs by sulforhodamine B assay; conditions: MOLT-4, 48 h, read-out: GI
UACC-62 = assay: Growth inhibition of human UACC62 cells at 10^-5 M incubated for 48 hrs by sulforhodamine B assay; conditions: UACC-62, 48 h, read-out: GI
IGROV-1 = assay: Growth inhibition of human IGROV1 cells at 10^-5 M incubated for 48 hrs by sulforhodamine B assay; conditions: IGROV-1, 48 h, read-out: GI
PC-3 = assay: Growth inhibition of human PC3 cells at 10^-5 M incubated for 48 hrs by sulforhodamine B assay; conditions: PC-3, 48 h, read-out: GI
A498 = assay: Growth inhibition of human A498 cells at 10^-5 M incubated for 48 hrs by sulforhodamine B assay; conditions: A498, 48 h, read-out: GI
SW-620 = assay: Growth inhibition of human SW620 cells at 10^-5 M incubated for 48 hrs by sulforhodamine B assay; conditions: SW-620, 48 h, read-out: GI
NCI-H226 = assay: Growth inhibition of human NCI-H226 cells at 10^-5 M incubated for 48 hrs by sulforhodamine B assay; conditions: NCI-H226, 48 h, read-out: GI
OVCAR-8 = assay: Growth inhibition of human OVCAR8 cells at 10^-5 M incubated for 48 hrs by sulforhodamine B assay; conditions: OVCAR-8, 48 h, read-out: GI
HCT-15 = assay: Growth inhibition of human HCT15 cells at 10^-5 M incubated for 48 hrs by sulforhodamine B assay; conditions: HCT-15, 48 h, read-out: GI
SF-539 = assay: Growth inhibition of human SF539 cells at 10^-5 M incubated for 48 hrs by sulforhodamine B assay; conditions: SF-539, 48 h, read-out: GI
SF-268 = assay: Growth inhibition of human SF268 cells at 10^-5 M incubated for 48 hrs by sulforhodamine B assay; conditions: SF-268, 48 h, read-out: GI
Hs-578T = assay: Growth inhibition of human Hs 578T cells at 10^-5 M incubated for 48 hrs by sulforhodamine B assay; conditions: read-out: GI
SK-OV-3 = assay: Growth inhibition of human SKOV3 cells at 10^-5 M incubated for 48 hrs by sulforhodamine B assay; conditions: SK-OV-3, 48 h, read-out: GI
SK-MEL-2 = assay: Growth inhibition of human SK-MEL-2 cells at 10^-5 M incubated for 48 hrs by sulforhodamine B assay; conditions: SK-MEL-2, 48 h, read-out: GI
Malme-3M = assay: Growth inhibition of human MALME-3M cells at 10^-5 M incubated for 48 hrs by sulforhodamine B assay; conditions: read-out: GI
CAKI-1 = assay: Growth inhibition of human Caki1 cells at 10^-5 M incubated for 48 hrs by sulforhodamine B assay; conditions: CAKI-1, 48 h, read-out: GI
K562 = assay: Growth inhibition of human K562 cells at 10^-5 M incubated for 48 hrs by sulforhodamine B assay; conditions: K562, 48 h, read-out: GI
SR = assay: Growth inhibition of human SR cells at 10^-5 M incubated for 48 hrs by sulforhodamine B assay; conditions: read-out: GI
BT-549 = assay: Growth inhibition of human BT549 cells at 10^-5 M incubated for 48 hrs by sulforhodamine B assay; conditions: BT-549, 48 h, read-out: GI
SK-MEL-5 = assay: Growth inhibition of human SK-MEL-5 cells at 10^-5 M incubated for 48 hrs by sulforhodamine B assay; conditions: SK-MEL-5, 48 h, read-out: GI
786-0 = assay: Growth inhibition of human 786-0 cells at 10^-5 M incubated for 48 hrs by sulforhodamine B assay; conditions: 786-0, 48 h, read-out: GI
RXF 393 = assay: Growth inhibition of human RXF393 cells at 10^-5 M incubated for 48 hrs by sulforhodamine B assay; conditions: RXF 393, 48 h, read-out: GI
NCI-H460 = assay: Growth inhibition of human NCI-H460 cells at 10^-5 M incubated for 48 hrs by sulforhodamine B assay; conditions: NCI-H460, 48 h, read-out: GI
UO-31 = assay: Growth inhibition of human UO31 cells at 10^-5 M incubated for 48 hrs by sulforhodamine B assay; conditions: UO-31, 48 h, read-out: GI
HOP-62 = assay: Growth inhibition of human HOP62 cells at 10^-5 M incubated for 48 hrs by sulforhodamine B assay; conditions: HOP-62, 48 h, read-out: GI
TK-10 = assay: Growth inhibition of human TK10 cells at 10^-5 M incubated for 48 hrs by sulforhodamine B assay; conditions: TK-10, 48 h, read-out: GI
NCI-H322M = assay: Growth inhibition of human NCI-H322M cells at 10^-5 M incubated for 48 hrs by sulforhodamine B assay; conditions: read-out: GI
MDA-MB-231 = assay: Growth inhibition of human MDA-MB-231 cells at 10^-5 M incubated for 48 hrs by sulforhodamine B assay; conditions: MDA-MB-231, 48 h, read-out: GI
SK-MEL-28 = assay: Growth inhibition of human SK-MEL-28 cells at 10^-5 M incubated for 48 hrs by sulforhodamine B assay; conditions: SK-MEL-28, 48 h, read-out: GI
ACHN = assay: Growth inhibition of human ACHN cells at 10^-5 M incubated for 48 hrs by sulforhodamine B assay; conditions: read-out: GI
COLO 205 = assay: Growth inhibition of human COLO205 cells at 10^-5 M incubated for 48 hrs by sulforhodamine B assay; conditions: COLO 205, 48 h, read-out: GI
M14 = assay: Growth inhibition of human M14 cells at 10^-5 M incubated for 48 hrs by sulforhodamine B assay; conditions: M14, 48 h, read-out: GI
T47D = assay: Growth inhibition of human T47D cells at 10^-5 M incubated for 48 hrs by sulforhodamine B assay; conditions: read-out: GI
SF-295 = assay: Growth inhibition of human SF295 cells at 10^-5 M incubated for 48 hrs by sulforhodamine B assay; conditions: SF-295, 48 h, read-out: GI
SNB-19 = assay: Growth inhibition of human SNB19 cells at 10^-5 M incubated for 48 hrs by sulforhodamine B assay; conditions: SNB-19, 48 h, read-out: GI
NCI-H23 = assay: Growth inhibition of human NCI-H23 cells at 10^-5 M incubated for 48 hrs by sulforhodamine B assay; conditions: NCI-H23, 48 h, read-out: GI
MDA-MB-468 = assay: Growth inhibition of human MDA-MB-468 cells at 10^-5 M incubated for 48 hrs by sulforhodamine B assay; conditions: MDA-MB-468, 48 h, read-out: GI

Row | Structure (SMILES) | inhibition of growth at 10 µM (HL-60(TB)) [%] | inhibition of growth at 10 µM (MOLT-4) [%] | inhibition of growth at 10 µM (UACC-62) [%] | inhibition of growth at 10 µM (IGROV-1) [%] | inhibition of growth at 10 µM (PC-3) [%] | inhibition of growth at 10 µM (A498) [%] | inhibition of growth at 10 µM (SW-620) [%] | inhibition of growth at 10 µM (NCI-H226) [%] | inhibition of growth at 10 µM (OVCAR-8) [%] | inhibition of growth at 10 µM (HCT-15) [%] | inhibition of growth at 10 µM (SF-539) [%] | inhibition of growth at 10 µM (SF-268) [%] | inhibition of growth at 10 µM (Hs-578T) [%] | inhibition of growth at 10 µM (SK-OV-3) [%] | inhibition of growth at 10 µM (SK-MEL-2) [%] | inhibition of growth at 10 µM (Malme-3M) [%] | inhibition of growth at 10 µM (CAKI-1) [%] | inhibition of growth at 10 µM (K562) [%] | inhibition of growth at 10 µM (SR) [%] | inhibition of growth at 10 µM (BT-549) [%] | also measured
1 | O=C1CSC2=Nc3c(sc4ccc(Cl)cc34)C(c3ccc4ccccc4c3)N12 (centres undefined) | -2.82 | 13.7 | 15.7 | 10.4 | 7.88 | 20 | -3.91 | 16.7 | 3.28 | 1.72 | -2.59 | 10.3 | -0.18 | 10.3 | -6.76 | 4.51 | 27.5 | 7.65 | 15.4 | -8.05 | inhibition of growth at 10 µM (SK-MEL-5): 2.92%; inhibition of growth at 10 µM (786-0): 2.84%; inhibition of growth at 10 µM (RXF 393): -5.09%; inhibition of growth at 10 µM (NCI-H460): -1.49%; inhibition of growth at 10 µM (UO-31): 37.4%; inhibition of growth at 10 µM (HOP-62): 6.69%; inhibition of growth at 10 µM (TK-10): -19.4%; inhibition of growth at 10 µM (NCI-H322M): 6.48%; inhibition of growth at 10 µM (MDA-MB-231): 19.7%; inhibition of growth at 10 µM (SK-MEL-28): -15%; inhibition of growth at 10 µM (ACHN): 7.81%; inhibition of growth at 10 µM (COLO 205): -3.73%; inhibition of growth at 10 µM (M14): 6.91%; inhibition of growth at 10 µM (T47D): 15.7%; inhibition of growth at 10 µM (SF-295): -4.03%; inhibition of growth at 10 µM (SNB-19): -1.93%; inhibition of growth at 10 µM (NCI-H23): 14.1%; inhibition of growth at 10 µM (MDA-MB-468): 2.47%
2 | O=C1SC2=Nc3c(sc4ccc(Cl)cc34)C(c3ccc4ccccc4c3)N2C1=O (centres undefined) | -4.12 | 11.9 | 34.2 | 26.4 | 17.1 | 13.1 | 4.8 | 24 | 5.42 | 7.44 | 5.81 | 12.7 | 1.4 | 9.71 | 14.1 | 12.9 | 30.1 | 12 | 26.4 | -19.9 | inhibition of growth at 10 µM (SK-MEL-5): 5.6%; inhibition of growth at 10 µM (786-0): 2.6%; inhibition of growth at 10 µM (RXF 393): 3.64%; inhibition of growth at 10 µM (NCI-H460): 4.51%; inhibition of growth at 10 µM (UO-31): 44.4%; inhibition of growth at 10 µM (HOP-62): 8.58%; inhibition of growth at 10 µM (TK-10): -28.7%; inhibition of growth at 10 µM (NCI-H322M): 13.9%; inhibition of growth at 10 µM (MDA-MB-231): 18.1%; inhibition of growth at 10 µM (SK-MEL-28): -13.2%; inhibition of growth at 10 µM (ACHN): 14.5%; inhibition of growth at 10 µM (COLO 205): -2.01%; inhibition of growth at 10 µM (M14): 7.5%; inhibition of growth at 10 µM (T47D): 24.5%; inhibition of growth at 10 µM (SF-295): -2.51%; inhibition of growth at 10 µM (SNB-19): 2.61%; inhibition of growth at 10 µM (NCI-H23): 20.5%; inhibition of growth at 10 µM (MDA-MB-468): 11.2%
3 | O=[N+]([O-])c1cccc(C2NC(=S)Nc3c2sc2ccc(Cl)cc32)c1 (centres undefined) | -2.41 | 9.49 | 8.94 | 27.5 | 15.4 | 19.7 | -0.61 | 20.5 | 4.42 | -0.11 | 5.63 | 4.17 | 11.4 | 10.5 | -9.95 | 17.3 | 22 | 10.6 | 20.3 | -0.23 | inhibition of growth at 10 µM (SK-MEL-5): 4.44%; inhibition of growth at 10 µM (786-0): 1.48%; inhibition of growth at 10 µM (RXF 393): -9.88%; inhibition of growth at 10 µM (NCI-H460): 11.4%; inhibition of growth at 10 µM (UO-31): -6.1%; inhibition of growth at 10 µM (HOP-62): 21.8%; inhibition of growth at 10 µM (TK-10): -6.1%; inhibition of growth at 10 µM (NCI-H322M): 6.48%; inhibition of growth at 10 µM (MDA-MB-231): 23.7%; inhibition of growth at 10 µM (SK-MEL-28): -8.2%; inhibition of growth at 10 µM (ACHN): 13%; inhibition of growth at 10 µM (COLO 205): -3.44%; inhibition of growth at 10 µM (M14): 2.86%; inhibition of growth at 10 µM (T47D): 30.9%; inhibition of growth at 10 µM (SF-295): 5.63%; inhibition of growth at 10 µM (SNB-19): 8.69%; inhibition of growth at 10 µM (NCI-H23): 14.5%; inhibition of growth at 10 µM (MDA-MB-468): 5.75%
